The values that follow come from patent publication US20100179646A1 (Rainbow Medical Ltd., priority 2009, published 2010).

Converted amounts (≈) assume the structure as drawn. “Also recorded” adds a separate entry of the source.

The nature of assay [1]: GOx activity assay (o-Dianisidine/peroxidase, optical density at 490 nm). The format is biochemical. The settings on record: 0.03 mg/ml GOx. How it is done: An assay was set up that included: • 48 mM sodium acetate buffer, pH 5.1 • 0.16 mM o-Dianisidine • 1.61% (w/v) glucose • 2 units/ml peroxidase
The above components undergo the following reactions in combination with GOx:
β-D-glucose+O2+H2O→D-Gluconolactone+H2O2 Reaction 1
H2O2+o-Dianisidine(reduced)→o-Dianisidine(oxidized) Reaction 2
The optical density of the assay at 490 nm indicates the concentration of oxidized o-Dianisidine in the assay, oxidized o-Dianisidine being the final product of Reactions 1 and 2. […] The assay was set up in a 96-well plate, in accordance with enzyme-linked immunosorbent assay (ELISA) techniques, as are known in the art. An ELISA reader, as is known in the art, was used to determine the optical density of the assay.
An assay was set up, in accordance with the techniques described with reference to Experiment 1.
The above components, in combination with glucose, undergo Reactions 1 and 2 described with reference to Experiment 1 hereinabove.
Different concentrations of glucose were added to the assay, and the optical density of the assay after five minutes was measured with 490 nm light.
The above assay was set up with sodium acetate buffer of a pH that varied from 4 to 7.7.

Assay [2] deals with Enterococcus faecalis strain G. The assay can be described thus: Determination of the MIC, 24 hour turbidity assay (optical density at 650 nm). It counts as cell-based. The procedure: Materials and Methods. • A Versamax™ temperature-controlled spectrophotometeric plate reader was used to continuously monitor growth of bacteria. This device accepts standard microtiter plates and maintains a constant temperature as desired. It therefore serves both as an incubator and as a plate reader that quantitatively monitors bacterial growth by following the development of turbidity in the wells. The device is supported by software which allows generation of individual growth curves for each well. • Enterococcus faecalis strain G was used. This bacterium was selected to establish a baseline to which other bacteria may be compared in the future. It is a stable strain and is streptomycin-resistant, which allows the use of this antibiotic agent in the growth media to reduce the incidence of accidental contamination with other bacterial strains. • Growth medium and conditions. The tests were conducted using Brain-Heart Infusion broth (BHI) as growth medium. This medium contained 1 mg/100 ml glucose which is approximately equivalent to serum concentration of glucose. A temperature of 37 C was maintained throughout the test. • Antibacterial agents. […] The Triclosan was initially dissolved in […] at a concentration of 10 mg/ml. […] Two types of non-woven fabric were used. The material was cut to standard size of 6 mm2. […] The growth medium contained 1 mg/100 mL glucose, which is approximately equivalent to the concentration that may be present in human blood. […] Bacteria were added at 10^6 CFU/well and the turbidity in the well was continuously monitored for up to 24 h to monitor the growth of the bacteria. Each group consisted of 8 wells with respective concentrations. Wells containing bacteria with no antibacterial agent served as a positive control. […] Bacteria were added to the same wells at time 0 and then at 24 and 48 h. Bacterial growth was monitored for 24 h after each addition. • (c) Determination of the MIC of Triclosan: The antibacterial effect of Triclosan was tested in 24 hour assays in order to define its MIC. Each well contained 200 μL of sterile growth medium. A range of Triclosan concentrations was added to respective wells. Bacteria were added at 10^6 CFU/well, and the turbidity in the well was continuously monitored for 24 h to monitor bacterial growth. Each group consisted of 8 wells with respective concentrations. Wells containing bacteria with no antibacterial agent served as a positive control. […] Each sample was attached to a special insert that allowed the material to be inserted into the wells of a microtiter plate without interfering with turbidity measurements in that well.

In assay [3] the test system is Enterococcus faecalis strain G. As to conditions: GOx 6 μg/well (30 μg/mL) or higher, 72 hours, bacteria added at 0, 24 and 48 h. How it is done:
Materials and Methods. • A Versamax™ temperature-controlled spectrophotometeric plate reader was used to continuously monitor growth of bacteria. This device accepts standard microtiter plates and maintains a constant temperature as desired. It therefore serves both as an incubator and as a plate reader that quantitatively monitors bacterial growth by following the development of turbidity in the wells. The device is supported by software which allows generation of individual growth curves for each well. • Enterococcus faecalis strain G was used. This bacterium was selected to establish a baseline to which other bacteria may be compared in the future. It is a stable strain and is streptomycin-resistant, which allows the use of this antibiotic agent in the growth media to reduce the incidence of accidental contamination with other bacterial strains. • Growth medium and conditions. The tests were conducted using Brain-Heart Infusion broth (BHI) as growth medium. This medium contained 1 mg/100 ml glucose which is approximately equivalent to serum concentration of glucose. […] Bacteria were added at 10^6 CFU/well and the turbidity in the well was continuously monitored for up to 24 h to monitor the growth of the bacteria. […] Bacteria were added at 10^6 CFU/well, and the turbidity in the well was continuously monitored for 24 h to monitor bacterial growth. […]

With glucose oxidase [GOx], in assay [1] (1.61% (w/v) glucose, sodium acetate buffer pH 4 to 7.7), the “influence of pH on GOx activity” value is given as “not substantially influenced”. In assay [1] (pH 5.1, after five minutes, FIG. 6A), the “GOx activity at glucose levels of 80-120 mg/dL” value is “active; also recorded: approximately constant activity”. For the same compound, the “inhibition of bacterial growth” value is given as “failed to inhibit” in assay [2] (4 μg/well (20 μg/mL), 24 h) and “substantially inhibitory; also recorded: zero bacterial growth” in assay [2] (GOx 6 μg/well (30 μg/mL) or higher, 24 h). Also, the “minimal inhibitory concentration (MIC)” value in assay [2] (24 hour assay, BHI broth with 1 mg/100 ml glucose, 37 C, 106 CFU/well) was 30 µg/mL. Besides, the “inhibition of bacterial growth, sustained effect” value in assay [3] is recorded as “substantially complete inhibition”.
Regarding `Oc1cc(Cl)ccc1Oc1ccc(Cl)cc1Cl` [Triclosan, reference compound], the “inhibition of bacterial growth” value is listed as “failed to inhibit” in assay [2] (4 μg/well (20 μg/mL), 24 h); “substantially inhibitory” in assay [2] (Triclosan 5 μg/well (25 μg/mL) and above, 24 h). Further, the MIC in assay [2] (Enterococcus faecalis, 24 h, read-out: minimal inhibitory concentration (MIC)) amounted to 25 µg/mL (≈ 86.3 µM).
